Assay results taken from ChEMBL document CHEMBL3301562, “MMV Box screening against Plasmodium falciparum protein kinases and aminoacyl tRNA synthetases”.

Key:
Assay type in all cases: functional
[1] = molecular target: T1, Cdk-related protein kinase 6 (Plasmodium falciparum, UniProt O77239); experiment: Final concentrations were 1.5 uM ATP, 5 mM MnCl2, and 15 ug/ml PK6 in a buffer of 100 mM Tris-HCl (pH 7.5). 50 ug/mL MBP was provided as the substrate; 10 uM staurosporine was used as a control inhibitor. Incubation time was 3 hours and 40 minutes.The catalytic activity of each kinase was considered proportional to ATP consumed, as determined from measurements of residual [ATP] with the luciferase-based reagent Kinase-Glo (Promega) following incubation. Luminescence (proportional to residual [ATP]) was measured on the plate readers FLx800 (BioTek Instruments, Winooski, VT, USA) and MicroBeta2.
T1 sequence (O77239 whole entry): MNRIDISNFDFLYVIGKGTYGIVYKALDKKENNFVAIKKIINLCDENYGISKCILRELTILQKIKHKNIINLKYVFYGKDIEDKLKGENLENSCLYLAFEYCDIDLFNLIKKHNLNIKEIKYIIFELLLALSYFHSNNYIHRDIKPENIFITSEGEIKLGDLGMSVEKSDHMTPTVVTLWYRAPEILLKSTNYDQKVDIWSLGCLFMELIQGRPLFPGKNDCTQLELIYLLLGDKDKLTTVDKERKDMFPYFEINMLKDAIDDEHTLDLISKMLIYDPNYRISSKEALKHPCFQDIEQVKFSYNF

[2] = molecular target: T2, Putative uncharacterized protein pk7 (Plasmodium falciparum, UniProt O96214); experiment: Final concentrations were 1 uM ATP, 2 mM DTT, 20 mM MgCl2, 2 mM MnCl2, 0.01% BSA, and 6 ug/ml PK7, in a buffer of 20 mM Tris-HCl (pH 7.5). The enzyme itself was the only substrate present (since autophosphorylation occurs); 100 uM 1NA-PP1 was used as a control inhibitor. Incubation time was 3 hours.
T2 sequence (O96214 whole entry): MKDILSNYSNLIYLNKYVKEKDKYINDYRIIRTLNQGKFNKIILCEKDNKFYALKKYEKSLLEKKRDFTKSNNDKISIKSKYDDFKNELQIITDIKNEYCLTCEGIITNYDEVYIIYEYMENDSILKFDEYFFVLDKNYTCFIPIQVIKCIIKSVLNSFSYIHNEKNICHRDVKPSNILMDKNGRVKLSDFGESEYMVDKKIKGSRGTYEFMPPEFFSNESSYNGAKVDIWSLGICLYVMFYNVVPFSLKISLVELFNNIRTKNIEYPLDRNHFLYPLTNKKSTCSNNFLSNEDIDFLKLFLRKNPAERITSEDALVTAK

[3] = molecular target: T3, Mitogen-activated protein kinase (Plasmodium falciparum, UniProt Q25917); experiment: Final concentrations were 1 uM ATP, 0.5 mM DTT, 1 mM MgCl2, 0.5 mg/mL BSA, and 10 ug/ml MAP2 in a buffer of 50 mM HEPES (pH 7.0). 0.5 mg/mL histone III-S served as the substrate (13); 100 uM AMP-PNP, an ATP analog, was used as a control inhibitor. Incubation time was 4 hours.
T3 sequence (Q25917 whole entry): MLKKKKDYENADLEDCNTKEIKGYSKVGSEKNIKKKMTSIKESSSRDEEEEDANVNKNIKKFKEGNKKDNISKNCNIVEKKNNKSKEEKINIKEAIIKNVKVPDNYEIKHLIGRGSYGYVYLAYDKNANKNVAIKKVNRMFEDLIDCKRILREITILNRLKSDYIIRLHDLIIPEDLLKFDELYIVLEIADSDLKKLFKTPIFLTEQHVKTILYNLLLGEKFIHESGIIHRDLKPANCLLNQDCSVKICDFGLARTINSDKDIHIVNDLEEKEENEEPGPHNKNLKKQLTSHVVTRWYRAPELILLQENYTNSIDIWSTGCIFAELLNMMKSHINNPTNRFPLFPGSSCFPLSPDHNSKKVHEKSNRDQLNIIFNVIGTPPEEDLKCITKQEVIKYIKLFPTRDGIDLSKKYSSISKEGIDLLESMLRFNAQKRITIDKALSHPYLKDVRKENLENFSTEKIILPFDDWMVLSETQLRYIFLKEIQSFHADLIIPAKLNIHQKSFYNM

[4] = molecular target: Calcium-dependent protein kinase 1 (Plasmodium falciparum, UniProt P62344); experiment: MMV: CDPK1 Protein kinase inhibition assay using recombinant PfCDPK1, syntide 2 peptide substrate, ATP and KinaseGlo to measure % inhibition at 1 uM MMV box compound.
[5] = molecular target: T4, Calcium-dependent protein kinase 4 (Plasmodium falciparum (isolate 3D7), UniProt Q8IBS5); experiment: MMV: CDPK4 Protein kinase inhibition assay using recombinant PfCDPK4, syntide2 peptide substrate, ATP and KinaseGlo to measure % inhibition at 1 uM MMV box compound.
T4 sequence (Q8IBS5 whole entry): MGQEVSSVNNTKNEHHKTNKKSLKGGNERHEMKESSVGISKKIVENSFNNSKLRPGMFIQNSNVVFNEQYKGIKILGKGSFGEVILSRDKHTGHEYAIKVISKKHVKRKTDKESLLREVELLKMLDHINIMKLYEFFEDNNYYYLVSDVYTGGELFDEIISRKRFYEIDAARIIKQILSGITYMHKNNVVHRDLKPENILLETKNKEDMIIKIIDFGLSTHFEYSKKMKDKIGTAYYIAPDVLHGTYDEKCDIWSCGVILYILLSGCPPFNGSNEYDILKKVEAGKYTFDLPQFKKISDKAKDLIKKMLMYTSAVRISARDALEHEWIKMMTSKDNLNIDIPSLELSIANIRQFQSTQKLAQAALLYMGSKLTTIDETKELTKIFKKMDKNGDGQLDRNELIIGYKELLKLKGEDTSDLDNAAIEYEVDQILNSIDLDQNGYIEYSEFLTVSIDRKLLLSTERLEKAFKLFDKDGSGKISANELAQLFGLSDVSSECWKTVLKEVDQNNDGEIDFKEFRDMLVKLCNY

Proline--tRNA ligase = molecular target: T5, Proline--tRNA ligase (Plasmodium falciparum (isolate 3D7), UniProt Q8I5R7); experiment: MMV: ProRS recombinant Plasmodium falciparum Prolyl-tRNA-synthetase, assay with yeast tRNA, ATP, and proline and 3 uM MMV malaria box compound, assay read out with kinase glo as % inhibition.
T5 sequence (Q8I5R7 whole entry): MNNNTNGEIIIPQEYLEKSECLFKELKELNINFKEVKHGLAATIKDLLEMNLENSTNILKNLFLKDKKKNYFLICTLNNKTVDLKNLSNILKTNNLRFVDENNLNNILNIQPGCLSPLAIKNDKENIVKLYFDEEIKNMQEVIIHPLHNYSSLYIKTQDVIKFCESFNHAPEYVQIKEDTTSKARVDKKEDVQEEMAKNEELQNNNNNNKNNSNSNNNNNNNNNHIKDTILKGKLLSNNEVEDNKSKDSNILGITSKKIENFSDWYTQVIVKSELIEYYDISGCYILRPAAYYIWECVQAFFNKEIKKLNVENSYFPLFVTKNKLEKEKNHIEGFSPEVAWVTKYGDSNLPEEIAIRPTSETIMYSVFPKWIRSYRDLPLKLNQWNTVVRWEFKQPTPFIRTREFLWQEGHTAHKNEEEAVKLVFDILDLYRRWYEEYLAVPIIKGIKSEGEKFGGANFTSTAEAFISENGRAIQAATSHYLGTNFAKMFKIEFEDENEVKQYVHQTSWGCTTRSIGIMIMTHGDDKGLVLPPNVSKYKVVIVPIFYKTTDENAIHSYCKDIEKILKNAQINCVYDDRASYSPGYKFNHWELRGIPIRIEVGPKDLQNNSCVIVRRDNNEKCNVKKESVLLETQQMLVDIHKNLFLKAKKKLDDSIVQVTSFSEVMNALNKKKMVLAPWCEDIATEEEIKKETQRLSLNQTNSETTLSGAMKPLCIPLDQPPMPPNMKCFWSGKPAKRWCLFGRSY

Lysine--tRNA ligase = Lysine--tRNA ligase (Plasmodium falciparum (isolate 3D7), UniProt Q8IDJ8); experiment: MMV: KRS recombinant Plasmodium falciparum Lysyl-tRNA-synthetase, assay with yeast tRNA, ATP, and lysine and 3 uM MMV malaria box compound, assay read out with kinase glo as % inhibition.
Chain of Lysine--tRNA ligase (Q8IDJ8 whole entry): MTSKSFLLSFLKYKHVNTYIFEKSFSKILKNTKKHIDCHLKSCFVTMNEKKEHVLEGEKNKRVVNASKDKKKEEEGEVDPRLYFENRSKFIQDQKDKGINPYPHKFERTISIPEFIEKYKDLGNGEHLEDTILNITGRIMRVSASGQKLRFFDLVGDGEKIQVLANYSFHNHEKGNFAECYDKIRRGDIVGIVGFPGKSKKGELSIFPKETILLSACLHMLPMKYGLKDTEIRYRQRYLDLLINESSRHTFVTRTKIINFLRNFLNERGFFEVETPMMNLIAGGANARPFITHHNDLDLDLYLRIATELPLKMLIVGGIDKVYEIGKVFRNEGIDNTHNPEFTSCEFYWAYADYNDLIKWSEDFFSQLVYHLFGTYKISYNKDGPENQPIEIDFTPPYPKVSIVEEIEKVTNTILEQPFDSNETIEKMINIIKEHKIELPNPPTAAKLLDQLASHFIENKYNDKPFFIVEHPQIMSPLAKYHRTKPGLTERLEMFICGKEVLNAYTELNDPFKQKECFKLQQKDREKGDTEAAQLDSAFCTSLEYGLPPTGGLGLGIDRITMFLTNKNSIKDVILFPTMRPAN

Chain of Calcium-dependent protein kinase 1 (P62344 whole entry): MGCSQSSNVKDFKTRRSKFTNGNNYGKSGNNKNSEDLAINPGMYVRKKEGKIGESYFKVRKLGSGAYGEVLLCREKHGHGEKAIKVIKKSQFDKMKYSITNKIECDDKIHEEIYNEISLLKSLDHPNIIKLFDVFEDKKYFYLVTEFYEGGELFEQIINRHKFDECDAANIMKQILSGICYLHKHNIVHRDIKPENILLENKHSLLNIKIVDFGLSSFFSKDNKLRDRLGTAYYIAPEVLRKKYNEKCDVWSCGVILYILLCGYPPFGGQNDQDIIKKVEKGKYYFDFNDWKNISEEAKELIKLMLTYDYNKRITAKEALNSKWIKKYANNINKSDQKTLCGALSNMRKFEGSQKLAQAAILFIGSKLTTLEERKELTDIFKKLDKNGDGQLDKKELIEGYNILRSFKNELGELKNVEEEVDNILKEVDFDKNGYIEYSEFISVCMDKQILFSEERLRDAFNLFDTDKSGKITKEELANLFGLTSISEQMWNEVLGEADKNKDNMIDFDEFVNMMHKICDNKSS

SMILES | IC50 [1] | IC50 [2] | IC50 [3] | IC50 [4] | IC50 [5] | IC50 (Proline--tRNA ligase) | IC50 (Lysine--tRNA ligase)
O=C(NCc1ccco1)C1CCN(S(=O)(=O)c2ccc(Cl)cc2)CC1 | > 1000 nM | > 1000 nM | > 1000 nM | > 1000 nM | > 1000 nM | > 2500 nM | > 2500 nM
c1ccc(-c2ccc(-c3nc4ccccc4[nH]3)cc2)cc1 | > 1000 nM | > 1000 nM | > 1000 nM | > 1000 nM | > 1000 nM | > 2500 nM | > 2500 nM
CCC(C)NCC(O)(c1ccc(Cl)cc1)c1ccc(Cl)cc1 (configuration not stated) | > 1000 nM | > 1000 nM | > 1000 nM | > 1000 nM | > 1000 nM | > 2500 nM | > 2500 nM
COCCNC(=O)c1ccc(OC2CCN(Cc3ccc(F)c(F)c3)CC2)c(Cl)c1 | > 1000 nM | > 1000 nM | > 1000 nM | > 1000 nM | > 1000 nM | > 2500 nM | > 2500 nM
O=C(CCc1ccco1)NC1CCN(CC2(c3ccc(Cl)cc3)CCC2)CC1 | > 1000 nM | > 1000 nM | > 1000 nM | > 1000 nM | > 1000 nM | > 2500 nM | > 2500 nM
COCCN(C(=O)Cc1cccs1)C(C(=O)NCc1ccc(OC)cc1)c1ccc(C(C)C)cc1 (configuration not stated) | > 1000 nM | > 1000 nM | > 1000 nM | > 1000 nM | > 1000 nM | > 2500 nM | > 2500 nM
FC(F)(F)c1cccc(CNC2CCN(CCc3ccccc3)CC2)c1 | > 1000 nM | > 1000 nM | > 1000 nM | > 1000 nM | > 1000 nM | > 2500 nM | > 2500 nM
Oc1ccc(Cl)cc1CNc1nc2ccccc2[nH]1 | > 1000 nM | > 1000 nM | > 1000 nM | > 1000 nM | > 1000 nM | > 2500 nM | > 2500 nM
O=C(c1ccccc1F)N(Cc1ccc(Cl)cc1)c1ccccn1 | > 1000 nM | > 1000 nM | > 1000 nM | > 1000 nM | > 1000 nM | > 2500 nM | > 2500 nM
O=C(Nc1ccc(Cl)cc1)N1CCN(c2ccc3nncn3n2)CC1 | > 1000 nM | > 1000 nM | > 1000 nM | > 1000 nM | > 1000 nM | > 2500 nM | > 2500 nM
O=C(CSc1ccc2nnc(-c3cccc(F)c3)n2n1)Nc1ccc2c(c1)OCO2 | > 1000 nM | > 1000 nM | > 1000 nM | > 1000 nM | > 1000 nM | > 2500 nM | > 2500 nM
CCCCNCC(O)(c1ccc(Cl)cc1)c1ccc(Cl)cc1 | > 1000 nM | > 1000 nM | > 1000 nM | > 1000 nM | > 1000 nM | > 2500 nM | > 2500 nM
CCOc1cccc2sc(N(Cc3cccnc3)C(=O)C3CCCCC3)nc12 | > 1000 nM | > 1000 nM | > 1000 nM | > 1000 nM | > 1000 nM | > 2500 nM | > 2500 nM
CC(C)(C)CC(C)(C)NCC(O)COc1ccc2c(c1)CCC2 (configuration not stated) | > 1000 nM | > 1000 nM | > 1000 nM | > 1000 nM | > 1000 nM | > 2500 nM | > 2500 nM
CCOc1ccc(/C=C/c2nc(=O)c3ccccc3o2)cc1 | > 1000 nM | > 1000 nM | > 1000 nM | > 1000 nM | > 1000 nM | > 2500 nM | > 2500 nM
O=C(Nc1ccccc1O)c1ccc(-c2ccc(Cl)cc2Cl)o1 | > 1000 nM | > 1000 nM | > 1000 nM | > 1000 nM | > 1000 nM | > 2500 nM | > 2500 nM
CC(O)(c1ccc(Cl)cc1)C(CN1CCCCC1)c1ccccc1 (configuration not stated) | > 1000 nM | > 1000 nM | > 1000 nM | > 1000 nM | > 1000 nM | > 2500 nM | > 2500 nM
CCCCc1ccc(NS(=O)(=O)c2cc3c4c(c2)CCN4C(=O)CC3)cc1 | > 1000 nM | > 1000 nM | > 1000 nM | > 1000 nM | > 1000 nM | > 2500 nM | > 2500 nM
CCOc1ccccc1CNC(=O)C1c2ccccc2C(=O)N(CC(C)C)C1c1cccs1 (configuration not stated) | > 1000 nM | > 1000 nM | > 1000 nM | > 1000 nM | > 1000 nM | > 2500 nM | > 2500 nM
COc1ccc(C2Sc3ccccc3N=C3C2=C(O)c2ccccc23)cc1 (configuration not stated) | > 1000 nM | > 1000 nM | > 1000 nM | > 1000 nM | > 1000 nM | > 2500 nM | > 2500 nM
CCN(CC)CCCNc1nc(-c2ccc(Cl)cc2)nc2ccccc12 | > 1000 nM | > 1000 nM | > 1000 nM | > 1000 nM | > 1000 nM | > 2500 nM | > 2500 nM
